Here are results for four compounds from EP0174458A1, “Use of 4H-1,4 benzothiazines in the prophylaxis and therapy of diseases of the breath ways, inflammations, rheumatisms, thromboembolic diseases, ischemia and infarctus, heart rhythm disorders, arteriosclerosis and dermatosis, therapeutic agents for this purpose and reactive compounds which are …” (BAYER AG, priority 1984, dated 1986).

Assay [1] concerns the target T1, 5-Lipoxygenase (Homo sapiens, UniProt P09917).
T1 sequence (P09917 1-674): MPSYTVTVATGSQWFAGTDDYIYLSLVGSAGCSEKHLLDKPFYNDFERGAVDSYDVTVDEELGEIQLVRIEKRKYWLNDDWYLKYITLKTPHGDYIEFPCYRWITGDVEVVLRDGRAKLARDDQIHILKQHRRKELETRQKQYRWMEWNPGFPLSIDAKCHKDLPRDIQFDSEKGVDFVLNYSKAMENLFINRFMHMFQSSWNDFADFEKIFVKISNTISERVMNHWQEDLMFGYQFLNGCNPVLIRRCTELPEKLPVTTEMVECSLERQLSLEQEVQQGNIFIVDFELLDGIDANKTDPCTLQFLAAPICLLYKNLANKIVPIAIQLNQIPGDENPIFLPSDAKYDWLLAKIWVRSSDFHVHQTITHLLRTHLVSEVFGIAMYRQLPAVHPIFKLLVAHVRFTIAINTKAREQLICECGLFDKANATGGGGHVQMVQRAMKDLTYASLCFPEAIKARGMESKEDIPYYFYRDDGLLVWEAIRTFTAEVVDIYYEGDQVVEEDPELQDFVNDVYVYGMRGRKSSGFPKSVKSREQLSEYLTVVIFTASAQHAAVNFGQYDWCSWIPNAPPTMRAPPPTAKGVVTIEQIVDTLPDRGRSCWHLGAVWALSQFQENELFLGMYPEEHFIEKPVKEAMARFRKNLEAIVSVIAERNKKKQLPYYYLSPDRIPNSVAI
As to the kind of experiment: cell-based.
From the text: Die Hemmung der Freisetzung von 5-HETE und Leukotrien B4 aus den Leukozyten stellt ein Maß für den lipoxygenasehemmenden Effekt der erfindungsgemäßen Verbindungen dar.
Der Test mit den Humanleukozyten wurde nach Borgeat und Samuelsson (J. Biol. Chem. 254, 2643, 1979 und Proc. Natl. Acad. Sci. USA, 76, 2148, 1979) durchgeführt.
Die im vorliegenden Beispiel verwendeten Human PMN-Leukozyten (w95 %) wurden aus heparinisiertem Vollblut durch eine Dextran-Sedimentation und anschließende Dichtegradiententrennung (Ficoll-Paque) gewonnen (vgl. A. Boyum, Scand. J. Immunol., 5, Suppl 5, 9, 1976).
2 x 10^7 Zellen/ml wurden in Ca2+-haltigem Dulbecco-Phosphat-Puffer suspendiert und in Anwesenheit bzw. Abwesenheit von Lipoxygenasehemmer mit dem Calcium-Ionophor A 23187 stimuliert.
Nach 15 Minuten wurden die Lipoxygenaseprodukte aus dem angesäuerten Inkubationsmedium extrahiert und mittels HPLC getrennt. Die Hochdruckflüssigkeitschromatographie wurde auf Lichrosorb RP-18(5 µm)-Säulen durchgeführt. Das Laufmittel war Methanol/Wasser/Eisessig 69/ 31/0.01. Die Flußrate betrug 1 ml/min. Leukotrien B4 wurde bei 280 nm, die HETE-Derivate bei 232 nm mittels der UV-Absorption bestimmt.

Assay [2] concerns durch Arachidonsäure induzierten Thromboembolie. Briefly: Protection against arachidonic acid induced thromboembolism. The conditions noted are these: 100 mg/kg p.o., Kaninchen, 1,5 mg/kg Na-arachidonat. Format: in vivo. The protocol: In diesem Modell wirken Substanzen, die mit der Prostaglandin- und Thromboxanbiosynthese interferieren. Kaninchen werden 1,5 mg/kg Na-arachidonat in eine marginale Ohrvene injiziert. Die Tiere sterben innerhalb von Minuten, vermutlich aufgrund vasospastischer Cyclooxygenase- und Lipoxygenaseprodukte sowie embolisierender Plättchenthromben. Vorbehandlung mit den erfindungsgemäßen Verbindungen schützt die Tiere, so daß diese überleben. Literatur: Silver, M.J. et al., Science 183, 1085, 1974 Seuter, F., Busse, W.D., Agents and Actions, Suppl. 4, 175, 1979.

Assay [3] concerns Prostacyclin (PGI2). As to the kind of experiment: Prostacyclin stimulation in aortic rings ex vivo. To be noted: 30 mg/kg p.o., Ratten. The protocol:
Aortenringe von mit Prüfsubstanzen vorbehandelten Ratten werden 10 Minuten bei 37°C in Trispuffer (pH 7,8) inkubiert. Das sich bildende Prostacyclin wird nach Umwandlung zu dem stabilen 6-Keto-PGF radioimmunologisch bestimmt. Literatur: Mc Intyre, D.E., Salzman, E.W., Thrombos. Haemostas. 46, 19, 1981. Seuter, F. et al., 6th International Symposium on Atherosclerosis, Abstr. 270, Berlin 1982.

On to `CC(C(=O)O)c1ccc2oc(-c3ccc(Cl)cc3)nc2c1` (stereo not shown) [Benoxaprofen], for which the IC50 in assay [1] fell in the range of 33.1 to 166 µM.
In the case of `O=C1CCCC2=C1Sc1ccccc1N2` [Herstellungs-beispiel 16], in assay [2], the Überlebensrate % was 66,6%.
In the case of `CSCCOC(=O)C1=C(C)Nc2ccccc2S1` [Herstellungsbeispiel 7], the “Fähigkeit von Aortenringen Prostacyclin zu synthetisieren” value in assay [3] is “erhöht”.
As to `CC(Cc1ccc(O)c(O)c1)C(C)Cc1ccc(O)c(O)c1` (stereo not shown) [NDGA, Nordihydroguaretsäure], in assay [1] (0.25 h, read-out: Hemmung), the inhibition at 0.5 µg/mL was roughly 50%.

What is called IC50 is the concentration at which inhibition is half-maximal. A higher IC50 goes with lower potency.
